Measured values: patent publication US6956043B2, “Pharmaceutical compositions comprising 33-epi-chloro-33-desoxy-ascomycin solid dispersions” (Novartis AG, priority 1995, dated 2005)

Key:
[1] = Relative bioavailability study in fasted beagle dogs; format: in vivo; settings: 1 mg/kg, hard gelatin capsules each containing 10 mg compound X
Experimental: Hard gelatin capsules each containing 10 mg compound X were administered to 8 dogs in a 4-way latin square design; the dogs were fed 6 hours post administration of the capsules, and blood levels of compound X were determined over 48 hours.

Dissolution rate test = format: physicochemical; settings: stirring in 0.2 wt % sodium dodecylsulfate in water at 37° C., 10 mg compound Y, after 30 minutes
Experimental: Forms E, F and G are tested for respective dissolution rates. […] 92% available compound Y is released from Form E. This compares with approximately 5% release after 30 minutes from an equivalent amount of crystalline compound Y.

Median peak levels [1] [ng/mL] | median AUC levels of 0-48 hr [1] | available compound Y released and dissolved (Dissolution rate test) | Compound
140 | ca. 1600 ng.h/ml |  | CO[C@H]1C[C@@H]2CC[C@@H](C)[C@@](O)(O2)C(=O)C(=O)N2CCCC[C@H]2C(=O)O[C@H]([C@H](C)C[C@@H]2CC[C@@H](OCCO)[C@H](OC)C2)CC(=O)[C@H](C)/C=C(\C)[C@@H](O)[C@@H](OC)C(=O)[C@H](C)C[C@H](C)/C=C/C=C/C=C/1C [Compound X, 40-O-(2-hydroxy)ethyl rapamycin]
 |  | approximately 5% | CC[C@@H]1/C=C(\C)C[C@H](C)C[C@H](OC)[C@H]2O[C@@](O)(C(=O)C(=O)N3CCCC[C@H]3C(=O)O[C@H](/C(C)=C/[C@@H]3CC[C@H](Cl)[C@H](OC)C3)[C@H](C)[C@@H](O)CC1=O)[C@H](C)C[C@@H]2OC [crystalline compound Y, 33-epi-chloro-33-desoxy-ascomycin]
